Biological target: Metabotropic glutamate receptor 5 (Rattus norvegicus, UniProt P31424)
Assay: Functional Calcium Flux Assay: For functional assays, HEK293 cells stably expressing recombinant rat mGluR5 were seeded in 384-well plates and dye loaded using Fluo-8. Cells were then washed to remove the un-incorporated dye. Antagonist evaluation was performed following a 15 min incubation of the test compound followed by the addition of submaximal concentration of glutamate. Intracellular calcium ([Ca2+]i) measurements were performed using a fluorometric imaging plate reader (FLIPR, Molecular Devices). The glutamate-evoked increase in [Ca2+]i in the presence of the test compounds was compared to the response to glutamate alone (the positive control). Antagonist inhibition curves were fitted with a 4-parameter logistic equation giving IC50 values, and Hill coefficients using an iterative nonlinear curve fitting algorithm.

Sequence of Metabotropic glutamate receptor 5 (P31424 whole entry): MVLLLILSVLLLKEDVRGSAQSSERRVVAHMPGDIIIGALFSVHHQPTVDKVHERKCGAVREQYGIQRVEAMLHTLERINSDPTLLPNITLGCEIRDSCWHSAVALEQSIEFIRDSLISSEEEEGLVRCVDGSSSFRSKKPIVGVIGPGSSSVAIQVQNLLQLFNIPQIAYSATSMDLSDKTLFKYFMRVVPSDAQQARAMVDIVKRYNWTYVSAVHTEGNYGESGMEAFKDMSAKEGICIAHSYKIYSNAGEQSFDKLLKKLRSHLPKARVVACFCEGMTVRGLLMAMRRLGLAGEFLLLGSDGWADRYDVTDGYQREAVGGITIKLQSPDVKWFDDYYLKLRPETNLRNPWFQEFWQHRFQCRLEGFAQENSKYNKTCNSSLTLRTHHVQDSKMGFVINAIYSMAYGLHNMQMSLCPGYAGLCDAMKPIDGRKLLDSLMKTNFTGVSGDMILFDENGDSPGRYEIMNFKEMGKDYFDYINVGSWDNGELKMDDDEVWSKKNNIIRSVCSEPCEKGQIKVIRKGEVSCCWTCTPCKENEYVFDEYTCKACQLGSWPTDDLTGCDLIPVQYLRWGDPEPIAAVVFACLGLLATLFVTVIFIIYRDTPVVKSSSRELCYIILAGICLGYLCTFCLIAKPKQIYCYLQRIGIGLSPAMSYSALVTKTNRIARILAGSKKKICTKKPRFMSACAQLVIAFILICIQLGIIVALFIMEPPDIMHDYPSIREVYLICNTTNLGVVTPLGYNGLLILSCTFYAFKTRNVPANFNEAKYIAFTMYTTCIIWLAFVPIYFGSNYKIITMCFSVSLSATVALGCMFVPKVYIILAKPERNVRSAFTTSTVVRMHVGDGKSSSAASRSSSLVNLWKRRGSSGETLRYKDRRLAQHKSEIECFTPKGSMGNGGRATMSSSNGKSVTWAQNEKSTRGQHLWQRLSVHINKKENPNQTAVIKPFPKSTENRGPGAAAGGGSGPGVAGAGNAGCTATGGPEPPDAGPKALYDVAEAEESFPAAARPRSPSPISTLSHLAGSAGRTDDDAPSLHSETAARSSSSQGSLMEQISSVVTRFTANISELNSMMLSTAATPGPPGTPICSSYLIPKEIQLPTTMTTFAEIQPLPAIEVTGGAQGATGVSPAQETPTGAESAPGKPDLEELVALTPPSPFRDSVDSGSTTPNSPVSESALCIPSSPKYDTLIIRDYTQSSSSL

N#Cc1cc(F)cc(N2CC3CC3(C#Cc3cccc(Cl)n3)C2)c1 (stereo unspecified)
IC50: < 500 nM

From ChEMBL document CHEMBL5727120, “Substituted pyrrolidines as mGluR5 antagonists” (2019)
